Entries after “also recorded” stand apart in the source; their conditions may differ.

For data set [1], the system named is fatigue symptomatology after COVID infection. The data set can be described thus: Off-label therapy case descriptions (cases 1 to 3) of fatigue symptomatology after COVID infection. In kind it is in vivo, human. The method, then:
(§1) Pyridine-3,4-diamine Amifampridine (formulation as finished drug) was administered in the below-mentioned application examples. As part of the double-blind study, capsules that look the same with Amifampridine or placebo were prepared blind by a pharmacy, whereby only the pharmacy knew which capsules contained active ingredient or placebo.
The following laboratory and ECG controls for detecting substance-associated complications were inconspicuous.
In case 3, a patient is described, who suffered from fatigue symptomatology with a need for sleep of up to 2×9 hours per day, after being infected with COVID twice.

The test system of data set [2] is fatigue symptomatology in post-COVID syndrome (PCS). The data set can be described thus: Further study (case series, pat. 1 to 5): Bell score and need for sleep in post-COVID syndrome under Amifampridine. In kind it is in vivo, human. The text has this: (§2) The Bell-score (or scale) is a measure of the impediment in the case of ME & CFS. It is also suitable for long COVID patients. The Bell scale is individual because each patient has a different stress tolerance and suffering from severe symptoms at rest can be relatively different. • 100 No symptoms at rest; no symptoms with physical stress; a normal overall activity level; able to work full-time without any difficulties. • 90 No symptoms at rest; mild symptoms with physical and mental stress; a normal overall activity level; able to work full-time without any difficulties. • 80 Mild symptoms at rest; the symptoms intensify due to stress; a slight performance limitation noticeable only with activities, which are strenuous; able to work full-time in jobs, which require exertion of force, with difficulties. • 70 Mild symptoms at rest; significant limitations noticeable in the daily activities; the functional state is a total of about 90% of the norm—with the exception of activities, which require an exertion of force; able to work full-time with difficulties. • 60 Mild symptoms at rest; significant limitations in the daily activities; the functional state is a total of about 70%-90% of the norm; unable to work a full-time job if physical work is required there; however, able to work full-time if it is light work and the hours of work can be handled flexibly. • 50 Moderate symptoms at rest; moderate to severe symptoms in response to physical stress or activity; the functional state is reduced to 70% of the norm; unable to perform strenuous work, but able to perform light work or desk work for 4-5 hours daily, whereby rest periods are required. • 40 Moderate symptoms at rest; moderate to severe symptoms in response to stress or activity; the functional state is reduced to 50%-70% of the norm; unable to perform strenuous work, but able to perform light work or desk work for 3-4 hours daily, whereby rest periods are required. • 30 Moderate to severe symptoms at rest; severe symptoms in response to any stress or activity; the functional state is reduced to 50% of the norm; generally housebound; unable to perform strenuous work, but able to perform light work or desk work for 2-3 hours daily, whereby rest periods are required. • 20 Moderate to severe symptoms at rest; severe symptoms in response to any stress or activity; the functional state is reduced to 30%-50% of the norm, except for rare exceptions, unable to leave the house; bedridden for the majority of the day; unable to concentrate for more than one hour per day. • 10 Severe symptoms at rest; bedridden most of the time; leaving the house is not possible; significant cognitive symptoms, which make it impossible to concentrate. • 0 Constant severe symptoms; always bedridden; unable to perform the simplest care measures.
A further study was performed on a patient group. A reduced fatigue symptomatology was determined in this study as well in the case of post-COVID syndrome under Amifampridine.
The prevalence of a post-COVID syndrome (PCS) is 10-15% after SARS-CoV-2 infection, a large variety of functional symptoms appear in addition to specific organ diseases, predominantly a fatigue symptomatology. The latter is characterized by persistent tiredness, weakness, cognitive deficits as well as increased need for sleep. […] The Bell score, which focusses on the limitation of the vigilance, physical endurance and job, was used for the evaluation. • In the case of pat. 1 of the further study, a previous Zn. EBV infection is known, otherwise no internal or neurological preexisting conditions. Fluctuating fatigue symptomatology after SARS-CoV-2 infection in May of 2022 with a Bell score between 20 and 40, increased need for sleep with 12 hours/24 h. After taking 5 mg of Amifampridine three times within 24 h (h: hours), there was complete convalescence with a Bell score of 100, the need for sleep reduced to 7 hours/24 h. Withdrawal trials ended in a fatigue again. • In the case of pat. […]

The test system of data set [3] is fatigue after SARS-CoV-2 infection. Nature of the data set: Double-blind withdrawal trial (verum/placebo, 3 days each) in pat. 2.1 and 2.2. In kind it is in vivo, human. Particulars: at start of the double-blind trial, already on Amifampridine (4 times 5 mg per day). The method, then:
as §1
In the case of pat. 2.1 and 2.2, a long-term medication with 20 mg of Amifampridine each per day were required for reconvalescence and thus offered prerequisites for a double-blind withdrawal trial for 3 days each.
Pat. 2.1 with verum on days 1-3, followed by placebo on days 4-6:
Pat. (pat. 2.1) with Bell score 90 already started with Amifampridine, as described above, and continued this with blister with […] each day, one drawer with capsules for 3 days with 4 times 5 mg of Amifampridine each. The dosage for 3 days each was placebo with 4 times placebo capsules each for patient 1 and 2 (verum and placebo).
Pat. 2.1: verum on days 1-3, followed by placebo on days 4-6: reduction of the Bell score to minimally 30 in the placebo phase, increased sleep time to 10.5 hours (FIG. 3: pat. 2.1, Bell score (line with squares with side lines of the squares parallel and perpendicular to the main line; sleep time/24 h (line with smaller squares, tips of squares point upwards/downwards as well as to the right and left). […]

Another data set deals with LEMS patients. As to conditions: cited from earlier work.
The subject of data set [4] is fatigue symptomatology after SARS-CoV-2 infection. The data set can be described thus: Patients 2.1 to 2.5: Bell score and cumulative sleep time in 24 h with and without Amifampridine. It counts as in vivo, human. Particulars: for Bell score, long term: long-term medication, daily dose 20 mg to 25 mg, 5 mg each at an interval of 4 hours.
Text: as §2
The following dosages of patients 2.1 to 2.5 and the changed Bell score values as well as the need for sleep in hours are illustrated in FIGS. 1 and 2 (FIG. 1 Bell-score with and without Amifampridine, patients 2.1 to 2.5, FIG. 2: cumulative sleep time in 24 h).
In the case of pat. 2.1, a psychotherapist without internal or neurological preexisting conditions, fluctuating fatigue symptomatology with a Bell score between 20 and 40 as well as increased need for sleep with 12 hours/24 h occurred after SARS-CoV-2 infection in May of 2022. After taking 5 mg of Amifampridine once, there was complete convalescence with a Bell score of 100, the need for sleep reduced to 7 hours/24 h.
After withdrawal trials (three days no Amifampridine) with recurrent fatigue, a long-term medication with a daily dose of 20 mg to 25 mg of 5 mg each at an interval of 4 hours occurred, whereby the Bell score is permanently from 90 to 100. This Bell score value can already be maintained for three quarters of a year. Taken from morning to night before going to sleep.
In the case of pat. […]

In the next data set the test system is MS patients. Particulars: described in the literature; cited from earlier work.
Setting [5] is: pat. 5 (LEMS), 5 mg three or four times as daily dose.
The mark [6] stands for this setting: pat. 2.5 (LEMS), 60 mg, later 70 mg per day (3 times 20 mg, optionally additional 5 mg).
Setting [7] is: pat. 2.5 (LEMS), initial administration of 3×5 mg.

`Nc1ccncc1N` [Amifampridine, Pyridine-3,4-diamine]: the muscular deficits result in data set [1] (case 1) is reported as “immediate improvement of the muscular deficits”. The “serious fatigue symptomatology existing since the COVID infection” value in data set [1] (case 1, need for sleep or rest up to 20 hours per day before) is “sudden improvement”. Besides, the “laboratory and ECG controls for detecting substance-associated complications” value in data set [1] (case 2) is on record as “inconspicuous”. The ability to concentrate entry in data set [1] (case 2, 5 mg of Amifampridine) is “complete restitution of the ability to concentrate”; in data set [1] (case 3, 5 mg of Amifampridine) it was “sudden improvement of the ability to concentrate”. Further, the assignable side effects result in data set [1] (case 2, 5 mg of Amifampridine) is on record as “Slight perioral paresthesias”. The fatigue symptomatology entry in data set [1] (case 2, 5 mg of Amifampridine) was “complete improvement of the fatigue symptomatology”. Besides, the existing fatigue entry in data set [1] (case 2, daily dose of 3×5 mg) is listed as “ceases completely”. The side effects result in data set [1] (case 3, 5 mg of Amifampridine) is “Transient perioral paresthesias with very low intensity”. The “need for sleep and rest” value in data set [1] (case 3, 5 mg of Amifampridine, before up to 2×9 hours per day) was “physiological need for sleep and rest”. Besides, the need for sleep in data set [2] (pat. 1, after 5 mg three times within 24 h, before 12) was 7 hours/24 h; in data set [2] (pat. 2, after 5 mg three times, before 12), 7.5 hours/24 h; in data set [2] (pat. 3, after taking 5 mg, before 11 to 12 hours/24 h) it was 7 to 9 h; in data set [2] (pat. 4, 5 mg three times within 24 h, before 12 to 14) it was 8 to 10 hours/24 h; in data set [2] (pat. 5 (LEMS), 5 mg three or four times as daily dose, before 16 to 18), 8-9 hours/24 h; in data set [4] (pat. 2.1, after taking 5 mg once, before 12) it was 7 hours/24 h. Also, the need for sleep in data set [4] (pat. 2.2, after taking 5 mg, before 11-12 hours/24 h) was 7 to 9 h; in data set [4] (pat. 2.3, after 5 mg, before 12) it was 7.5 hours/24 h; in data set [4] (pat. 2.5 (LEMS), initial administration of 3×5 mg, before 16-18) it was 8-9 hours/24 h; in data set [4] (patient 2.4, after 5 mg, before 12-14), 8 to 10 hours/24 h. For the same molecule, the Bell score was 100 in data set [2] (pat. 1, after 5 mg three times within 24 h, before 20 to 40); 100 in data set [2] (pat. 2, after 5 mg three times, before 40); 100 in data set [2] (pat. 3, after taking 5 mg, before 40); 50 in data set [2] (pat. 4 (post-COVID myocarditis), 5 mg three times within 24 h, before 20); 90 in data set [3]; 100 in data set [4] (pat. 2.1, after taking 5 mg once, before 20 to 40). Further, the Bell score in data set [4] (pat. 2.2, after taking 5 mg, before 40) amounted to 80; in data set [4] (pat. 2.3, after 5 mg, before 40), 100; in data set [4] (pat. 2.5 (LEMS), initial administration of 3×5 mg, before 10), 80; in data set [4] (patient 2.4 (post-COVID myocarditis), after 5 mg, before 20) it was 50. Further, the vigilance result in data set [2] (pat. 2, after 5 mg three times) is listed as “unlimited vigilance”; in data set [4] (pat. 2.3, after 5 mg), “unlimited vigilance”. Moreover, the “duration of the effect” value was “about 36 hours” in data set [2] (pat. 3, after taking 5 mg) and “about 36 hours” in data set [4] (pat. 2.2, after taking 5 mg). The fatigue result in data set [2] (setting [5]) and in data set [4] (setting [7]) was “the fatigue ceased” in each case. Moreover, the muscular endurance result in data set [2] (setting [5]) and in data set [4] (setting [7]) was “improved muscular endurance” each time. For the same molecule, the “co-indicated / coincident fatigue of LEMS patients” value with LEMS patients (LEMS patients) is on record as “improvement of a co-indicated fatigue”. Moreover, the “Bell score, long term” value is 90 to 100 in data set [4] (pat. 2.1, held for three quarters of a year) and 90 to 100 in data set [4] (pat. 2.2, past month). The “Bell score with regard to fatigue” value in data set [4] (setting [6]) is recorded as 70 to 80. In addition, the “Bell score with regard to the muscular deficits” value in data set [4] (setting [6]) is given as “approx. 20”.

With `Nc1ccncc1` [Fampridine], the “accompanying fatigue symptomatology in MS patients” value in the data set on MS patients is recorded as “improvement of an accompanying fatigue symptomatology; also recorded: favorable effects”.

With Amifampridine Phosphate, in the data set on LEMS patients (as phosphates, 20 to 80 mg as daily doses, J Clin Neuromuscul Dis. 2019), the “coincident fatigue with LEMS” value was “Improvement of a coincident fatigue”.

Values taken from patent US20250152566A1 (priority 2023, published 2025).
